The numbers were not newly measured in paper PMC3759941 (International Journal of Molecular Sciences, 2013), which cites them from elsewhere.

This data set has as its system EeAChE.

Where two headings read alike, the source gives them in different places.

Broadly, the IC50 is the concentration needed to halve the response being measured. As for `C[n+]1ccccc1/C=N/O` [Compound 1, 2-pyridine aldoxime methiodide], under “Table 1, mono-pyridinium reactivators”, the IC50 was 54.9 mM.
As to `ON=Cc1cc[n+](CCC[n+]2ccc(/C=N/O)cc2)cc1` [Compound 6, trimedoxime], the IC50 is, setting by setting: (Table 2, bis-pyridinium reactivators) 51.9 mM; (Table 3) 51.9 mM.
With `ON=Cc1cc[n+](C/C=C/C[n+]2ccc(C=NO)cc2)cc1` [Compound 23], the IC50 (Table 3) is 36.7 mM.
